Read-outs that look alike come from different tables or passages of the source.
Test system: TEAD-dependent transcription
Experiment: TEAD-dependent transcription cell-based reporter assay (MSTO-211H+12XGTIIC luciferase)
Design: species or system human
Settings: MSTO-211H+12XGTIIC cell line, luciferase signal normalized to cell viability, 24 hours compound incubation, read-out: MSTO-211H GMean IC50 (uM) Cell Assay Reporter Cell Variant: TEAD
Procedure, shortened: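 MSTO-211H mesothelioma cells stably carrying a 12xGTIIC TEAD-response-element luciferase reporter, treated with serial compound dilutions for 24 h at 37 °C. Luminescence normalized to CellTiter-Fluor viability signal; % inhibition versus DMSO and 20 μM K-975 controls, IC50 by nonlinear regression.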

`CS(=O)(=O)CCC(=O)N1CCc2ccc(Oc3ccc(C(F)(F)F)cc3)c(/C=C/C3CC3)c2C1` [P-0220, (E)-1-(8-(2-cyclopropyl-vinyl)-7-(4-(trifluoro-methyl)phenoxy)-3,4-dihydroisoquinolin-2(1H)-yl)-3-(methylsul-fonyl)propan-1-one] showed an IC50 (Homo sapiens) of 0.001 to 10 µM.
`C=CS(=O)(=O)N1CCC(C(=O)N2CCc3ccc(Oc4ccc(C(F)(F)F)c(F)c4)cc3C2)CC1` [P-0159] was tested, and the IC50 (Homo sapiens) was 0.001 to 10 µM.
Molecule `CS(=O)(=O)CCC(=O)N1CCc2ccc(Oc3ccc(C(F)(F)F)cc3)c(Br)c2C1` [P-0205, 1-(8-bromo-7-(4-(trifluoromethyl)phen-oxy)-3,4-dihydroisoquin-olin-2(1H)-yl)-3-(methyl-sulfonyl)propan-1-one] has an IC50 (Homo sapiens) of 0.001 to 10 µM.
`CS(=O)(=O)c1nccc(N2CCc3ccc(Oc4ccc(C(F)(F)F)cc4)cc3C2)n1` [P-0226, 2-(2-(methylsulfonyl)-pyrimidin-4-yl)-7-(4-(trifluoromethyl)phen-oxy)-1,2,3,4-tetrahydro-isoquinoline] was tested, and the IC50 (Homo sapiens) was 0.001 to 10 µM.
For `NS(=O)(=O)CCC(=O)N1CCc2ccc(Oc3ccc(C(F)(F)F)cc3)cc2C1` [P-0048, 3-oxo-3-(7-(4-(trifluoro-methyl)phenoxy)-3,4-dihydroisoquinolin-2(1H)-yl)propane-1-sulfonamide], the IC50 (Homo sapiens) was 0.001 to 10 µM.
With `CCCCC(=O)N1CCc2ccc(Oc3ccc(C(F)(F)F)cc3)cc2C1` [P-0023, 1-(7-(4-(trifluorometh-yl)phenoxy)-3,4-dihydro-isoquinolin-2(1H)-yl)-pentan-1-one] the IC50 (Homo sapiens) was 0.001 to 10 µM.
`O=C(Cc1ccn[nH]1)N1CCc2c(cccc2Oc2ccc(C(F)(F)F)cc2)C1` [P-0241, 2-(1H-pyrazol-5-yl)-1-(5-(4-(trifluoromethyl)-phenoxy)-3,4-dihydroiso-quinolin-2(1H)-yl)ethan-1-one] showed an IC50 (Homo sapiens) of 0.001 to 10 µM.
`O=C(Cc1nnc[nH]1)N1CCc2c(cccc2Oc2ccc(C(F)(F)F)cc2)C1` [P-0251, 2-(4H-1,2,4-triazol-3-yl)-1-(5-(4-(trifluoromethyl)-phenoxy)-3,4-dihydroiso-quinolin-2(1H)-yl)ethan-1-one] was tested, and the IC50 (Homo sapiens) was 0.001 to 10 µM.
With `O=C1N[C@@H](CC(=O)N2CCc3ccc(Oc4ccc(C(F)(F)F)c(F)c4)cc3C2)CO1` [P-0140, (S)-4-(2-(7-(3-fluoro-4-(trifluoromethyl)phen-oxy)-3,4-dihydroisoquin-olin-2(1H)-yl)-2-oxoeth-yl)oxazolidin-2-one] the IC50 (Homo sapiens) was 0.001 to 10 µM.
In the case of `O=C(Cc1cnccc1O)N1CCc2ccc(Oc3ccc(C(F)(F)F)cc3)cc2C1` [P-0047, 2-(4-hydroxypyridin-3-yl)-1-(7-(4-(trifluoro-methyl)phenoxy)-3,4-dihydroisoquinolin-2(1H)-yl)ethan-1-one], the IC50 (Homo sapiens) is reported as 0.001 to 10 µM.
Molecule `NC(=O)NCCC(=O)N1CCc2ccc(Oc3ccc(C(F)(F)F)cc3)cc2C1` [P-0096, 1-(3-oxo-3-(7-(4-(trifluoromethyl)phen-oxy)-3,4-dihydroisoquin-olin-2(1H)-yl)propyl)urea] has an IC50 (Homo sapiens) of 0.001 to 10 µM.
In the case of `CN1CCC(C(=O)N2CCc3ccc(Oc4ccc(C(F)(F)F)c(F)c4)cc3C2)C1` (centres unmarked) [P-0105, (7-(3-fluoro-4-(trifluoro-methyl)phenoxy)-3,4-dihydroisoquinolin-2(1H)-yl)(1-methylpyr-rolidin-3-yl)methanone], the IC50 (Homo sapiens) is reported as 0.001 to 10 µM.
`CN(C)S(=O)(=O)NCC(=O)N1CCc2ccc(Oc3ccc(C(F)(F)F)c(F)c3)cc2C1` [P-0116, N,N-dimethyl-N′-(2-(7-(3-fluoro-4-(trifluoro-methyl)phenoxy)-3,4-dihydroisoquinolin-2(1H)-yl)-2-oxoethyl)-sulfamide] showed an IC50 (Homo sapiens) of 0.001 to 10 µM.
For `C=CC(=O)Nc1nc(CC(=O)N2CCc3ccc(Oc4ccc(C(F)(F)F)c(F)c4)cc3C2)cs1` [P-0154, N-(4-(2-(7-(3-fluoro-4-(trifluoromethyl)phen-oxy)-3,4-dihydroisoquin-olin-2(1H)-yl)-2-oxoeth-yl)thiazol-2-yl)acrylamide], the IC50 (Homo sapiens) was 0.001 to 10 µM.
In the case of `NC(=O)c1cc(C(=O)N2CCc3ccc(Oc4ccc(C(F)(F)F)cc4)cc3C2)n[nH]1` [P-0124, 3-(7-(4-(trifluorometh-yl)phenoxy)-1,2,3,4-tetrahydroisoquinoline-2-carbonyl)-1H-pyrazole-5-carboxamide], the IC50 (Homo sapiens) is reported as 0.001 to 10 µM.
Work on `CS(=O)(=O)c1ccnc(N2CCc3ccc(Oc4ccc(C(F)(F)F)cc4)cc3C2)c1` [P-0227, 2-(4-(methylsulfonyl)pyr-idin-2-yl)-7-(4-(trifluoro-methyl)phenoxy)-1,2,3,4-tetrahydroisoquinoline] yielded an IC50 (Homo sapiens) of 0.001 to 10 µM.
In the case of `O=C(N1CCc2ccc(Oc3ccc(C(F)(F)F)cc3)cc2C1)C12CC1C2` (centres unmarked) [P-0011, bicyclo[1.1.0]butan-1-yl(7-(4-(trifluoromethyl)-phenoxy)-3,4-dihydro-isoquinolin-2(1H)-yl)-methanone], the IC50 (Homo sapiens) is reported as 0.001 to 10 µM.
`Nc1nc(C(=O)N2CCc3ccc(Oc4ccc(C(F)(F)F)cc4)cc3C2)cs1` [P-0073, (2-aminothiazol-4-yl)(7-(4-(trifluoromethyl)phen-oxy)-3,4-dihydroisoquin-olin-2(1H)-yl)methanone] was tested, and the IC50 (Homo sapiens) was 0.001 to 10 µM.
`O=C(NC1(C(=O)N2CCc3ccc(Oc4ccc(C(F)(F)F)cc4)cc3C2)CC1)C(F)(F)F` [P-0136, 2,2,2-trifluoro-N-(1-(7-(4-(trifluoromethyl)phen-oxy)-1,2,3,4-tetrahydro-isoquinoline-2-carbonyl)-cyclopropyl)acetamide] gave an IC50 (Homo sapiens) of 0.001 to 10 µM.
Work on `NC(=O)N1CCC(C(=O)N2CCc3c(cccc3Oc3ccc(C(F)(F)F)cc3)C2)C1` (centres unmarked) [P-0256, 3-(5-(4-(trifluorometh-yl)phenoxy)-1,2,3,4-tetrahydroisoquinoline-2-carbonyl)pyrrolidine-1-carboxamide] yielded an IC50 (Homo sapiens) of 0.001 to 10 µM.
Molecule `CC(=O)N1CCC(C2c3cc(Oc4ccc(C(F)(F)F)cc4)ccc3CCN2C(=O)CCS(C)(=O)=O)C1` (centres unmarked) [P-0204, 1-(1-(1-acetylpyrrolidin-3-yl)-7-(4-(trifluorometh-yl)phenoxy)-3,4-dihydro-isoquinolin-2(1H)-yl)-3-(methylsulfonyl)-propan-1-one] has an IC50 of 0.001 to 10 µM.
In the case of `CS(=O)(=O)NCCC(=O)N1CCc2ccc(Oc3ccc(C(F)(F)F)cc3)cc2C1` [P-0101, N-(3-oxo-3-(7-(4-(trifluoromethyl)phen-oxy)-3,4-dihydroisoquin-olin-2(1H)-yl)propyl)-methanesulfonamide], the IC50 (Homo sapiens) is reported as 0.001 to 10 µM.
For `O=C(Cc1cn[nH]c1)N1CCc2c(cccc2Oc2ccc(C(F)(F)F)cc2)C1` [P-0247, 2-(1H-pyrazol-4-yl)-1-(5-(4-(trifluoromethyl)-phenoxy)-3,4-dihydroiso-quinolin-2(1H)-yl)ethan-1-one], the IC50 (Homo sapiens) was 0.001 to 10 µM.
With `N#CCCS(=O)(=O)N1CCc2ccc(Oc3ccc(C(F)(F)F)cc3)cc2C1` [P-0049, 3-((7-(4-(trifluorometh-yl)phenoxy)-3,4-dihydro-isoquinolin-2(1H)-yl)sul-fonyl)propanenitrile] the IC50 (Homo sapiens) was 0.001 to 10 µM.
`CC(NS(C)(=O)=O)C(=O)N1CCc2ccc(Oc3ccc(C(F)(F)F)cc3)cc2C1` (centres unmarked) [P-0135, N-(1-oxo-1-(7-(4-(trifluoromethyl)phen-oxy)-3,4-dihydroisoquin-olin-2(1H)-yl)propan-2-yl)methanesulfonamide] gave an IC50 (Homo sapiens) of 0.001 to 10 µM.
Work on `O=C(CC1CCOC1)N1CCc2ccc(Oc3ccc(C(F)(F)F)cc3)cc2C1` (centres unmarked) [P-0086, 2-(tetrahydrofuran-3-yl)-1-(7-(4-(trifluorometh-yl)phenoxy)-3,4-dihydro-isoquinolin-2(1H)-yl)-ethan-1-one] yielded an IC50 (Homo sapiens) of 0.001 to 10 µM.
With `O=C(CC1CCOCC1)N1CCc2ccc(Oc3ccc(C(F)(F)F)cc3)cc2C1` [P-0087, 2-(tetrahydro-2H-pyran-4-yl)-1-(7-(4-(trifluoro-methyl)phenoxy)-3,4-dihydroisoquinolin-2(1H)-yl)ethan-1-one] the IC50 (Homo sapiens) was 0.001 to 10 µM.
For `CC(C)(C)OC(=O)NCC(=O)N1CCc2ccc(Oc3ccc(C(F)(F)F)cc3)cc2C1` [P-0131, tert-butyl (2-oxo-2-(7-(4-(trifluoromethyl)phen-oxy)-3,4-dihydroisoquin-olin-2(1H)-yl)ethyl)-carbamate], the IC50 (Homo sapiens) was 0.001 to 10 µM.
With `CS(=O)(=O)c1ncc(C(=O)N2CCc3ccc(Oc4ccc(C(F)(F)F)cc4)cc3C2)s1` [P-0075, (2-(methylsulfonyl)thi-azol-5-yl)(7-(4-(trifluoro-methyl)phenoxy)-3,4-dihydroisoquinolin-2(1H)-yl)methanone] the IC50 (Homo sapiens) was 0.001 to 10 µM.
`O=C(c1cnco1)N1CCc2ccc(Oc3ccc(C(F)(F)F)cc3)cc2C1` [P-0122, oxazol-5-yl(7-(4-(trifluoromethyl)phen-oxy)-3,4-dihydroisoquin-olin-2(1H)-yl)methanone] gave an IC50 (Homo sapiens) of 0.001 to 10 µM.
For `CS(=O)(=O)CCC(=O)N1CCc2ccc(Oc3ccc(C(F)(F)F)cc3)cc2C1CC1CN(C(=O)CO)C1` (centres unmarked) [P-0202, 1-(1-((1-(2-hydroxyacet-yl)azetidin-3-yl)methyl)-7-(4-(trifluoromethyl)-phenoxy)-3,4-dihydro-isoquinolin-2(1H)-yl)-3-(methylsulfonyl)-propan-1-one], the IC50 (Homo sapiens) was 0.001 to 10 µM.
`O=C(Cc1cn[nH]c1O)N1CCc2c(cccc2Oc2ccc(C(F)(F)F)cc2)C1` [P-0252, 2-(5-hydroxy-1H-pyr-azol-4-yl)-1-(5-(4-(trifluoromethyl)phen-oxy)-3,4-dihydroisoquin-olin-2(1H)-yl)ethan-1-one] gave an IC50 (Homo sapiens) of 0.001 to 10 µM.
With `NC1=NC(=O)C(CC(=O)N2CCc3ccc(Oc4ccc(C(F)(F)F)cc4)cc3C2)S1` (centres unmarked) [P-0070, 2-amino-5-(2-oxo-2-(7-(4-(trifluoromethyl)-phenoxy)-3,4-dihydroiso-quinolin-2(1H)-yl)ethyl)-thiazol-4(5H)-one] the IC50 (Homo sapiens) was 0.001 to 10 µM.
`O=C1NCCC1CC(=O)N1CCc2ccc(Oc3ccc(C(F)(F)F)c(F)c3)cc2C1` (centres unmarked) [P-0142, 3-(2-(7-(3-fluoro-4-(trifluoromethyl)phen-oxy)-3,4-dihydroisoquin-olin-2(1H)-yl)-2-oxoeth-yl)pyrrolidin-2-one] showed an IC50 (Homo sapiens) of 0.001 to 10 µM.
`CCCCNC(=O)N1CCc2ccc(Oc3ccc(C(F)(F)F)cc3)cc2C1` [P-0032, N-butyl-7-(4-(trifluoro-methyl)phenoxy)-3,4-dihydroisoquinoline-2(1H)-carboxamide] was tested, and the IC50 (Homo sapiens) was 0.001 to 10 µM.

Reference: US20250129028A1, “COMPOUNDS AND METHODS FOR YAP/TEAD MODULATION AND INDICATIONS THEREFOR” (Opna Bio SA, priority 2022, published 2025)
